Data taken from patent publication US10421718B2, “EBNA1 inhibitors and their method of use” (priority 2013, dated 2019).
Counter-ions that a name gives are not always drawn.

Target: T1, His-EBNA1 (DNA binding domain of EBNA1, amino acids 459-607) (Epstein-Barr virus, UniProt P03211)
T1 construct: made in house; host or cells: E. coli
Test: Inhibition of 5′-biotin-oPL4624 binding to His-EBNA1 using Alpha Screen technology
Details: Alpha Screen Activity (IC50, inhibition of 5′-biotin-oPL4624 binding to His-EBNA1), 15 nM His-EBNA1, 0.2 nM bt-oPL4624, 2 hr room temperature
Procedure, shortened: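 AlphaScreen signal (680 nm ex, 570 nm em) after a 2-h room-temperature incubation, normalized to no-EBNA1 (100% inhibition) and EBNA1 (0%) values and fit to a one-site curve. Final conditions: 15 nM His-EBNA1 (aa 459-607), 0.2 nM bt-oPL4624, Tris pH 7.2 buffer with 160 mM NaCl, compound 3.2 nM to 100 μM.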

T1 sequence (P03211 459-607): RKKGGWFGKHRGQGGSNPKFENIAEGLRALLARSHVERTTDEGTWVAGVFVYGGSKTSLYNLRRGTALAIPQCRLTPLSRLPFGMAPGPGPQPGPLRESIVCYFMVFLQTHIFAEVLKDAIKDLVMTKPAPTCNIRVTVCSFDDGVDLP

SMILES	IC50 [µM]
O=C(O)c1cccc(C#Cc2ccc(N3CCOCC3)cc2)c1-c1ccc2cc[nH]c2c1 [Entry 226, 2-(1H-indol-6-yl)-3-((4-morpholinophenyl)ethynyl)benzoic acid]	10 to 100
NC(=O)c1cccc(C#Cc2cccc(C(=O)O)c2-c2ccc3cc[nH]c3c2)c1 [Entry 227, 3-((3-carbamoylphenyl)ethynyl)-2-(1H-indol-6-yl)benzoic acid]	10 to 100
O=C(O)c1cccc(C#Cc2ccc(F)cc2)c1-c1ccc2cc[nH]c2c1 [Entry 228, 3-((4-Fluorophenyl)ethynyl)-2-(1H-indol-6-yl)benzoic acid]	1 to 10
O=C(O)c1cccc(C#Cc2ccc(F)cc2F)c1-c1ccc2cc[nH]c2c1 [Entry 229, 3-((2,4-Difluorophenyl)ethynyl)-2-(1H-indol-6-yl)benzoic acid]	1 to 10
CC(=O)Nc1cccc(C#Cc2cccc(C(=O)O)c2-c2ccc3cc[nH]c3c2)c1 [Entry 230, 3-((3-Acetamidophenyl)ethynyl)-2-(1H-indol-6-yl)benzoic acid]	< 1
O=C(Nc1cccc(C#Cc2cccc(C(=O)O)c2-c2ccc3cc[nH]c3c2)c1)c1cccnc1 [Entry 231, 2-(1H-indol-6-yl)-3-((3-(nicotinamido)phenyl)ethynyl)benzoic acid]	1 to 10
O=C(O)c1cccc(C#Cc2cccc(NS(=O)(=O)c3ccc(F)c(Cl)c3)c2)c1-c1ccc2cc[nH]c2c1 [Entry 232, 3-((3-(3-chloro-4-fluorophenylsulfonamido)phenyl)ethynyl)-2-(1H-indol-6-yl)benzoic acid]	< 1
Nc1cccc(C#Cc2cccc(C(=O)O)c2-c2ccc3cc[nH]c3c2)c1 [Entry 233, 3-((3-aminophenyl)ethynyl)-2-(1H-indol-6-yl)benzoic acid]	< 1
CS(=O)(=O)Nc1cccc(C#Cc2cccc(C(=O)O)c2-c2ccc3cc[nH]c3c2)c1 [Entry 234, 2-(1H-indol-6-yl)-3-((3-(methylsulfonamido)phenyl)ethynyl)benzoic acid]	1 to 10
O=C(O)c1cccc(C#Cc2cccc(NS(=O)(=O)c3cccs3)c2)c1-c1ccc2cc[nH]c2c1 [Entry 235, 2-(1H-indol-6-yl)-3-((3-(thiophene-2-sulfonamido)phenyl)ethynyl)benzoic acid]	< 1
CC(=O)Nc1cc(F)cc(C#Cc2cccc(C(=O)O)c2-c2ccc3cc[nH]c3c2)c1 [Entry 236, 3-((3-acetamido-5-fluorophenyl)ethynyl)-2-(1H-indol-6-yl)benzoic acid]	< 1
O=C(O)c1cccc(C#Cc2ccccc2)c1-c1ccc2c(c1)NCC2 [Entry 237, 2-(indolin-6-yl)-3-(phenylethynyl)benzoic acid]	10 to 100
O=C(O)c1cccc(C#Cc2cccc(O)c2)c1-c1ccc2c(c1)NCC2 [Entry 238, 3-((3-hydroxyphenyl)ethynyl)-2-(indolin-6-yl)benzoic acid]	1 to 10
Nc1cccc(C#Cc2cccc(C(=O)O)c2-c2ccc3cc[nH]c3c2)n1 [Entry 239, 3-((6-aminopyridin-2-yl)ethynyl)-2-(1H-indol-6-yl)benzoic acid]	1 to 10
Nc1cc(C#Cc2cccc(C(=O)O)c2-c2ccc3cc[nH]c3c2)ccn1 [Entry 240, 3-((2-aminopyridin-4-yl)ethynyl)-2-(1H-indol-6-yl)benzoic acid]	1 to 10
COc1cncc(-c2c(C#Cc3cccc(O)c3)cccc2C(=O)O)c1 [Entry 241, 3-((3-hydroxyphenyl)ethynyl)-2-(5-methoxypyridin-3-yl)benzoic acid]	10 to 100
O=C(O)c1cccc(C#Cc2cccc(O)c2)c1-c1ccc2c(c1)OCO2 [Entry 242, 2-(benzo[d][1,3]dioxol-5-yl)-3-((3-hydroxyphenyl)ethynyl)benzoic acid]	10 to 100
O=C(O)c1cccc(C#Cc2cccc(O)c2)c1-c1cncnc1 [Entry 243, 3-((3-hydroxyphenyl)ethynyl)-2-(pyrimidin-5-yl)benzoic acid]	10 to 100
COc1cc(-c2c(C#Cc3cccc(O)c3)cccc2C(=O)O)ccc1N [Entry 244, 4′-Amino-6-((3-hydroxyphenyl)ethynyl)-5′-methoxybiphenyl-2-carboxylic acid]	10 to 100
O=C(O)c1cccc(C#CCCO)c1-c1ccc2cc[nH]c2c1 [Entry 245, 3-(4-hydroxybut-1-ynyl)-2-(1H-indol-6-yl)benzoic acid]	< 1
CC(C)(N)C#Cc1cccc(C(=O)O)c1-c1ccc2cc[nH]c2c1 [Entry 246, 3-(3-amino-3-methylbut-1-ynyl)-2-(1H-indol-6-yl)benzoic acid]	1 to 10
O=C(O)c1cccc(C#CC(O)c2ccccc2)c1-c1ccc2cc[nH]c2c1 (centres unmarked) [Entry 247, 3-(3-hydroxy-3-phenylprop-1-ynyl)-2-(1H-indol-6-yl)benzoic acid]	< 1

SMILES	IC50 [µM]
CC(C)(O)C#Cc1cccc(C(=O)O)c1-c1ccc2cc[nH]c2c1 [Entry 248, 3-(3-hydroxy-3-methylbut-1-ynyl)-2-(1H-indol-6-yl)benzoic acid]	< 1
O=C(O)c1cccc(C#Cc2cccc(CO)c2)c1-c1ccc2cc[nH]c2c1 [Entry 249, 3-((3-(hydroxymethyl)phenyl)ethynyl)-2-(1H-indol-6-yl)benzoic acid]	1 to 10
O=C(O)c1cc2ccc(-c3c(C#Cc4ccccc4)cccc3C(=O)O)cc2[nH]1 [Entry 250, 6-(2-carboxy-6-(phenylethynyl)phenyl)-1H-indole-2-carboxylic acid]	1 to 10
CCOC(=O)c1cc2ccc(-c3c(C#Cc4ccccc4)cccc3C(=O)O)cc2[nH]1 [Entry 251, 2-(2-(ethoxycarbonyl)-1H-indol-6-yl)-3-(phenylethynyl)benzoic acid]	1 to 10
COc1cc(C#Cc2cccc(C(=O)O)c2-c2ccc3cc[nH]c3c2)cc(C(N)=O)c1 [Entry 252, 3-((3-carbamoyl-5-methoxyphenyl)ethynyl)-2-(1H-indol-6-yl)benzoic acid]	1 to 10
O=C(O)c1cccc(C#Cc2ccccc2)c1-c1ccc2[nH]ccc2c1 [Entry 253, 2-(1H-indol-5-yl)-3-(phenylethynyl)benzoic acid]	1 to 10
O=C(O)c1cc2cc(-c3c(C#Cc4cccc(O)c4)cccc3C(=O)O)ccc2[nH]1 [Entry 254, 5-(2-carboxy-6-((3-hydroxyphenyl)ethynyl)phenyl)-1H-indole-2-carboxylic acid]	10 to 100
COc1ccc(C#Cc2cccc(C(=O)O)c2-c2ccc3[nH]c(C(=O)O)cc3c2)cc1 [Entry 255, 5-(2-carboxy-6-((4-methoxyphenyl)ethynyl)phenyl)-1H-indole-2-carboxylic acid]	10 to 100
O=C(O)c1cccc(C#Cc2ccc(F)c(OC3CCOCC3)c2)c1-c1ccc2cc[nH]c2c1 [Entry 256, 3-((4-fluoro-3-(tetrahydro-2H-pyran-4-yloxy)phenyl)ethynyl)-2-(1H-indol-6-yl)benzoic acid]	1 to 10
CC(=O)Nc1cccc(-c2c(C#Cc3ccccc3)cccc2C(=O)O)c1 [Entry 257, 5′-acetamido-6-(phenylethynyl)biphenyl-2-carboxylic acid]	10 to 100
Nc1ccc2c(c1)ncn2CC#Cc1cccc(C(=O)O)c1-c1ccccc1 [Entry 258, 3-[3-(5-amino-1H-1,3-benzodiazol-1-yl)prop-1-yn-1-yl]-2-phenylbenzoic acid trifluoroacetate salt]	1 to 10
O=C(O)c1cccc(C#Cc2ccncc2)c1-c1ccc2cc[nH]c2c1 [Entry 259, 2-(1H-indol-6-yl)-3-[2-(pyridin-4-yl)ethynyl]benzoic acid; trifluoroacetate salt]	1 to 10
Cc1ccc(-c2c(C#Cc3ccncc3)cccc2C(=O)O)cc1 [Entry 260, 2-(4-methylphenyl)-3-[2-(pyridin-4-yl)ethynyl]benzoic acid; trifluoroacetate salt]	10 to 100
Cc1ccc(-c2c(C#Cc3cccc(O)c3)cccc2C(=O)O)cc1 [Entry 261, 3-[2-(3-hydroxyphenyl)ethynyl]-2-(4-methylphenyl)benzoic acid]	10 to 100
O=C(O)c1cccc(C#CCNc2ccc3[nH]cnc3c2)c1-c1ccccc1 [Entry 262, 3-{3-[(1H-1,3-benzodiazol-6-yl)amino]prop-1-yn-1-yl}-2-phenylbenzoic acid; trifluoroacetate salt]	1 to 10
Cn1ccc2cc(-c3c(C#Cc4cccc(O)c4)cccc3C(=O)O)ccc21 [Entry 263, 3-[2-(3-hydroxyphenyl)ethynyl]-2-(1-methyl-1H-indol-5-yl)benzoic acid]	1 to 10
CN1CCOc2cc(-c3c(C#Cc4cccc(O)c4)cccc3C(=O)O)ccc21 [Entry 264, 3-[2-(3-hydroxyphenyl)ethynyl]-2-(4-methyl-3,4-dihydro-2H-1,4-benzoxazin-7-yl)benzoic acid; trifluoroacetate salt]	1 to 10
CS(=O)(=O)Nc1cccc(-c2c(C#Cc3cccc(O)c3)cccc2C(=O)O)c1 [Entry 265, 3-[2-(3-hydroxyphenyl)ethynyl]-2-(3-methanesulfonamidophenyl)benzoic acid]	10 to 100
O=C(O)c1cccc(C#Cc2cccc(O)c2)c1-c1ccc2cc[nH]c2c1 [Entry 266, 3-[2-(3-hydroxyphenyl)ethynyl]-2-(1H-indol-6-yl)benzoic acid]	< 1
NC(=O)c1cccc(-c2c(C#Cc3cccc(O)c3)cccc2C(=O)O)c1 [Entry 267, 2-(3-carbamoylphenyl)-3-[2-(3-hydroxyphenyl)ethynyl]benzoic acid]	10 to 100
O=C(O)c1cccc(C#Cc2cccc(O)c2)c1-c1cn(S(=O)(=O)c2ccccc2)c2ccccc12 [Entry 268, 2-[1-(benzenesulfonyl)-1H-indol-3-yl]-3-[2-(3-hydroxyphenyl)ethynyl]benzoic acid]	10 to 100
O=C(O)c1cccc(C#Cc2cccc(O)c2)c1-c1cccc(O)c1 [Entry 269, 2-(3-hydroxyphenyl)-3-[2-(3-hydroxyphenyl)ethynyl]benzoic acid]	10 to 100
